From the NIST ThermoML archive (doi:10.1021/acs.jced.5b00599)

Conditions: Gas, Oscillating disk viscometry

O [water]
Conditions | viscosity [mPa·s]
297.33 K, Mass density=0.092 kg/m3 | 0.00963
297.76 K, Mass density=0.023 kg/m3 | 0.009649
298.16 K, Mass density=0.092 kg/m3 | 0.009654
298.69 K, Mass density=0.129 kg/m3 | 0.009676
298.99 K, Mass density=0.129 kg/m3 | 0.009697
299.38 K, Mass density=0.018 kg/m3 | 0.009722
300.35 K, Mass density=0.018 kg/m3 | 0.009746
301.55 K, Mass density=0.023 kg/m3 | 0.009792
310.44 K, Mass density=0.129 kg/m3 | 0.01008
311.12 K, Mass density=0.023 kg/m3 | 0.01011
311.13 K, Mass density=0.092 kg/m3 | 0.0101
311.52 K, Mass density=0.018 kg/m3 | 0.01013
325.16 K, Mass density=0.092 kg/m3 | 0.01059
325.62 K, Mass density=0.023 kg/m3 | 0.01063
326.81 K, Mass density=0.129 kg/m3 | 0.01064
327.19 K, Mass density=0.018 kg/m3 | 0.01067
338.27 K, Mass density=0.129 kg/m3 | 0.01104
338.47 K, Mass density=0.023 kg/m3 | 0.01107
339.05 K, Mass density=0.018 kg/m3 | 0.01109
339.49 K, Mass density=0.092 kg/m3 | 0.01109
352.03 K, Mass density=0.092 kg/m3 | 0.01154
352.69 K, Mass density=0.018 kg/m3 | 0.01158
352.79 K, Mass density=0.129 kg/m3 | 0.01156
352.84 K, Mass density=0.023 kg/m3 | 0.01158
365.89 K, Mass density=0.092 kg/m3 | 0.01204
366.46 K, Mass density=0.129 kg/m3 | 0.01205
366.97 K, Mass density=0.018 kg/m3 | 0.01208
367.44 K, Mass density=0.023 kg/m3 | 0.0121
380.14 K, Mass density=0.092 kg/m3 | 0.01257
380.24 K, Mass density=0.092 kg/m3 | 0.01257
380.61 K, Mass density=0.129 kg/m3 | 0.01257
380.86 K, Mass density=0.018 kg/m3 | 0.0126
380.91 K, Mass density=0.129 kg/m3 | 0.0126
381.03 K, Mass density=0.023 kg/m3 | 0.0126
382.98 K, Mass density=0.023 kg/m3 | 0.01267
384.22 K, Mass density=0.018 kg/m3 | 0.01273
394.56 K, Mass density=0.092 kg/m3 | 0.01311
394.75 K, Mass density=0.129 kg/m3 | 0.0131
394.87 K, Mass density=0.018 kg/m3 | 0.01313
395.16 K, Mass density=0.023 kg/m3 | 0.01312
408.37 K, Mass density=0.092 kg/m3 | 0.01363
408.69 K, Mass density=0.129 kg/m3 | 0.01365
409.25 K, Mass density=0.023 kg/m3 | 0.01365
410.22 K, Mass density=0.018 kg/m3 | 0.0137
422.63 K, Mass density=0.092 kg/m3 | 0.01418
423.17 K, Mass density=0.129 kg/m3 | 0.01421
423.35 K, Mass density=0.023 kg/m3 | 0.01419
423.87 K, Mass density=0.018 kg/m3 | 0.01423
437.65 K, Mass density=0.092 kg/m3 | 0.01479
437.93 K, Mass density=0.129 kg/m3 | 0.01479
438.48 K, Mass density=0.023 kg/m3 | 0.01478
438.75 K, Mass density=0.018 kg/m3 | 0.01482
466.44 K, Mass density=0.092 kg/m3 | 0.01596
466.96 K, Mass density=0.129 kg/m3 | 0.01598
468.21 K, Mass density=0.018 kg/m3 | 0.01601
468.74 K, Mass density=0.023 kg/m3 | 0.01598
496.27 K, Mass density=0.023 kg/m3 | 0.0171
496.94 K, Mass density=0.092 kg/m3 | 0.01723
497.01 K, Mass density=0.129 kg/m3 | 0.01727
497.08 K, Mass density=0.018 kg/m3 | 0.01723
